The results in this text go back to US10626112B2, “Heterocyclic sulfonamide derivative and medicine comprising same” (EA PHARMA CO., LTD., priority 2014, dated 2020).

human TRPA1, sequence (O75762 whole entry): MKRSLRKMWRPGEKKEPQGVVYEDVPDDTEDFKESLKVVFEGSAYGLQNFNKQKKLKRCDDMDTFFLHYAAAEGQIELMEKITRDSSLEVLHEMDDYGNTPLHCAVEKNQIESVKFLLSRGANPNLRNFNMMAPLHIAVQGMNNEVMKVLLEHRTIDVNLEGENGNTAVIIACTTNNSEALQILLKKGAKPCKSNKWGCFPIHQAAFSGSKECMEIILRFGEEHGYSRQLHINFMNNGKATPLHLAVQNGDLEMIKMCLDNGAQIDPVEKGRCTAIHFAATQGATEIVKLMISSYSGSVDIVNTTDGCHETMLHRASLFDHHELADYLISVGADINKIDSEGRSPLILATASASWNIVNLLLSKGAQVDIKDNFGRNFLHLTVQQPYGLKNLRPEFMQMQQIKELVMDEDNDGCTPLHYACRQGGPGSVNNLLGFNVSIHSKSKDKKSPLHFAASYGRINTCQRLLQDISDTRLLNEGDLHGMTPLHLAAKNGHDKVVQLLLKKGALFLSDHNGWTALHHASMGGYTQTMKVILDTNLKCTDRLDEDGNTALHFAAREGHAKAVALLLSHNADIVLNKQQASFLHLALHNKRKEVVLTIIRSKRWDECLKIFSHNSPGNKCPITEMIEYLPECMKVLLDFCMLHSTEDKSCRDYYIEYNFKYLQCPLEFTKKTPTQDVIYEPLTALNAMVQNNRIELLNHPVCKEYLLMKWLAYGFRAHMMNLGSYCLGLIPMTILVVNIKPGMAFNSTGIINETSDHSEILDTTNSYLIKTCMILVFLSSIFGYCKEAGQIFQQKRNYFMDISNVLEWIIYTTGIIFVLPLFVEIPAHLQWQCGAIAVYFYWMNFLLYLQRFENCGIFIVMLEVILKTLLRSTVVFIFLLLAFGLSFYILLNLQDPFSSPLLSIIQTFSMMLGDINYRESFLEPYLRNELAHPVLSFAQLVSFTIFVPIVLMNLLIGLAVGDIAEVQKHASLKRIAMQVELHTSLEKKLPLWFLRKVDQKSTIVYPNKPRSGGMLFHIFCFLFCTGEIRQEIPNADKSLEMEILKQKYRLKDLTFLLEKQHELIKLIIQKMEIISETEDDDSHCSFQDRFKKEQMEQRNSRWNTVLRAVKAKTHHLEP

This test addresses human TRPA1 (Homo sapiens (Human), UniProt O75762). Kind of test: Measurement of TRPA1 antagonist activity (2): as (1), different lot of human TRPA1 expression plasmid. It is filed as cell-based. The following applies: 293T cells transfected with human TRPA1, allylisothiocyanate 20 μM stimulation, calcium fluorescence, read-out: hTRPA1 IC50. On the procedure: Human embryonic kidney-derived 293T cells were cultured in Dulbecco's Modified Eagle Medium containing 10% fetal bovine serum, 10 unit penicillin, and 10 μg streptomycin, plated on a petri dish having a diameter of 10 cm at 3×10^6 cells, and cultured for 24 hr in a CO2 incubator. A reduced serum medium (manufactured by Invitrogen, trade name: OPTI-MEM, 600 μL), a gene transfer reagent (manufactured by Mirus Bio, trade name: Mirus TransIT-293, 18 μL), and human TRPA1 expression plasmid (6 μg) were mixed, the total amount of the mixture was added to the cells on the petri dish to allow for gene transfer. The cells were recovered about for 8 hr later, plated on a poly-D-lysine coated 384 well black/clear bottom plate at 12,000 cells/well, and cultured overnight.
Measurement of Intracellular Calcium Increase
The 384 well plate was recovered, and the medium was removed. A calcium-bonded fluorescent indicator (manufactured by Molecular Device, trade name: Calcium4 Assay Kit, 38 μL) dissolved in assay buffer (1×HBSS, 20 mM HEPES, pH 7.2) was added, and the cells were stained in a CO2 incubator for 1 hr. The cells were taken out at room temperature, stood for not less than 15 min, a test substance (10 μL) was added by a platereader FDSS7000 (Hamamatsu Photonics K.K.) equipped with a 384ch dispenser. After 10 min, allylisothiocyanate (12 μL) was further added at a final concentration of 20 μM, and changes in the relative fluorescence intensity after addition of allylisothiocyanate were measured for 5 min.
Test Substance Preparation
The test substance was dissolved in dimethyl sulfoxide and serially diluted with an assay buffer containing 0.1% bovine serum albumin (1×HBSS, 20 mM HEPES, pH 7.2) to a 4.8-fold concentration of the evaluation concentration. Allylisothiocyanate, which is a known TRPA1 activator, was dissolved in dimethyl sulfoxide to 100 mM, and further diluted 5-fold (100 μM) of the final concentration, like the test substance.
Calculation of Antagonist Activity
Under the test substance-free conditions, the maximum variation range of the fluorescence intensity before and after allylisothiocyanate stimulation was defined to be 100% activity rate, and the variation range before and after buffer stimulation was defined as 0% activity rate. The activity rate on addition of the test substance was determined, and the numerical value obtained by subtracting the activity rate from 100 was defined to be an inhibitory rate. IC50, which is the concentration of the test substance necessary for reaching the 50% inhibitory rate, was calculated from the sigmoid approximate curve by a spreadsheet software Excel-Fit.
Measurement of TRPA1 Antagonist Activity (2)
By a method similar to that in Experimental Example 1-1 except that the lot of human […] expression plasmid is different, the TRPA1 antagonist activity of the test substance was measured.
`CC(C)N(CC(=O)NCc1cc(-c2ccc(OC(F)(F)F)cc2)ncn1)S(=O)(=O)c1cc2cc(F)ccc2o1` [Example 364, 2-[(5-fluorobenzofuran-2-yl)sulfonyl-isopropyl-amino]-N-[[6-[4-(trifluoromethoxy)-phenyl]pyrimidin-4-yl]methyl]acetamide]: the IC50 came out at 10 nM.

As to `O=C(NCc1cc(-c2ncc(C(F)(F)F)cn2)ccn1)[C@@H]1CCCN1S(=O)(=O)c1cc2cnccc2o1` [Example 365, (2S)-1-furo[3,2-c]pyridin-2-ylsulfonyl-N-[[4-[5-(trifluoromethyl)pyrimidin-2-yl]-2-pyridyl]methyl]pyrrolidine-2-carboxamide], the IC50 was 220 nM.

As to `C[C@H](NS(=O)(=O)c1cc2cnccc2o1)C(=O)NCc1ccnc(-c2ccc(C(F)(F)F)cc2)c1` [Example 366, (2S)-2-(furo[3,2-c]pyridin-2-ylsulfonylamino)-N-[[2-[4-(trifluoromethyl)phenyl]-4-pyridyl]methyl]propanamide], the half-maximal inhibitory concentration (IC50) was found to be 190 nM.

In the case of `C[C@H](NS(=O)(=O)c1cc2cnccc2o1)C(=O)NCc1cccc(-c2ccc(C(F)(F)F)cn2)c1` [Example 367, (2S)-2-(furo[3,2-c]pyridin-2-ylsulfonylamino)-N-[[3-[5-(trifluoromethyl)-2-pyridyl]-phenyl]methyl]propanamide], the IC50 was 170 nM.

With `CC(C)N(CC(=O)NCc1cc(-c2ccc(C(F)(F)F)cc2)ncn1)S(=O)(=O)c1cc2cnccc2o1` [Example 368, 2-[furo[3,2-c]pyridin-2-ylsulfonyl(isopropyl)amino]-N-[[6-[4-(trifluoromethyl)-phenyl]pyrimidin-4-yl]methyl]acetamide], the IC50 is 13 nM.

In the case of `C[C@H](NS(=O)(=O)c1cc2cnccc2o1)C(=O)NCc1cc(-c2ccc(C(F)(F)F)cc2)nc(N(C)C)n1` [Example 369, (2S)-N-[[2-(dimethylamino)-6-[4-(trifluoromethyl)-phenyl]pyrimidin-4-yl]methyl]-2-(furo[3,2-c]pyridin-2-ylsulfonylamino)propanamide], the IC50 was found to be 44 nM.

For `C[C@H](NS(=O)(=O)c1cc2cc(F)ccc2o1)C(=O)NCc1cc(-c2ccc(C(F)(F)F)cc2)nc(N(C)C)n1` [Example 370, (2S)-N-[[2-(dimethylamino)-6-[4-(trifluoromethyl)-phenyl]pyrimidin-4-yl]methyl]-2-[(5-fluorobenzofuran-2-yl)sulfonylamino]propanamide], the IC50 stood at 73 nM.

On to `CN(C)c1nc(CNC(=O)[C@@H]2CCCN2S(=O)(=O)c2cc3ccccc3o2)cc(-c2ccc(C(F)(F)F)nc2)n1` [Example 371, (2S)-1-(benzofuran-2-ylsulfonyl)-N-[[2-(dimethylamino)-6-[6-(trifluoromethyl)-3-pyridyl]pyrimidin-4-yl]methyl]pyrrolidine-2-carboxamide], for which the IC50 was 10 nM.

`C[C@H](NS(=O)(=O)c1cc2cc(F)ccc2o1)C(=O)NCc1cc(-c2ccc(C(F)(F)F)nc2)nc(N(C)C)n1` [Example 372, (2S)-N-[[2-(dimethylamino)-6-[6-(trifluoromethyl)-3-pyridyl]pyrimidin-4-yl]methyl]-2-[(5-fluorobenzofuran-2-yl)sulfonylamino]propanamide]: the IC50 stood at 27 nM.

For the compound `C[C@H](NS(=O)(=O)c1cc2cnccc2o1)C(=O)NCc1ccc(O)c(-c2ccc(C(F)(F)F)cn2)c1` [Example 373, (2S)-2-(furo[3,2-c]pyridin-2-ylsulfonylamino)-N-[[4-hydroxy-3-[5-(trifluoromethyl)-2-pyridyl]-phenyl]methyl]propanamide], the half-inhibitory concentration (IC50) amounted to 79 nM.

For the compound `CC(C)N(CC(=O)NCc1ccc(O)c(-c2ccc(C(F)(F)F)cn2)c1)S(=O)(=O)c1cc2cnccc2o1` [Example 374, 2-[furo[3,2-c]pyridin-2-ylsulfonyl(isopropyl)amino]-N-[[4-hydroxy-3-[5-(trifluoromethyl)-2-pyridyl]-phenyl]methyl]acetamide], the IC50 is 15 nM.

On to `CN(C)c1nc(CNC(=O)[C@@H]2CCCN2S(=O)(=O)c2cc3cnccc3o2)cc(-c2ccc(C(F)(F)F)cc2)n1` [Example 375, (2S)-N-[[2-(dimethylamino)-6-[4-(trifluoromethyl)phenyl]-pyrimidin-4-yl]methyl]-1-furo[3,2-c]pyridin-2-ylsulfonyl-pyrrolidine-2-carboxamide], for which the half-inhibitory concentration (IC50) was found to be 13 nM.

For `CN(C)c1nc(CNC(=O)[C@@H]2CCCN2S(=O)(=O)c2cc3ccccc3o2)cc(-c2ccc(C(F)(F)F)cc2O)n1` [Example 376, (2S)-1-(benzofuran-2-ylsulfonyl)-N-[[2-(dimethylamino)-6-[2-hydroxy-4-(trifluoromethyl)phenyl]-pyrimidin-4-yl]methyl]pyrrolidine-2-carboxamide], the IC50 was 21 nM.

Take `C[C@H](NS(=O)(=O)c1cc2cc(F)ccc2o1)C(=O)NCc1cc(-c2ccc(C(F)(F)F)cc2O)nc(N(C)C)n1` [Example 377, (2S)-N-[[2-(dimethylamino)-6-[2-hydroxy-4-(trifluoromethyl)phenyl]-pyrimidin-4-yl]methyl]-2-[(5-fluorobenzofuran-2-yl)sulfonylamino]propanamide]: the concentration for half-maximal inhibition (IC50) was 110 nM.

`CN(C)c1nc(CNC(=O)[C@@H]2CCCN2S(=O)(=O)c2cc3cc(F)ccc3o2)cc(-c2ccc(C(F)(F)F)cc2)n1` [Example 378, (2S)-N-[[2-(dimethylamino)-6-[4-(trifluoromethyl)phenyl]-pyrimidin-4-yl]methyl]-1-(5-fluorobenzofuran-2-yl)sulfonyl-pyrrolidine-2-carboxamide]: the IC50 came to 5.2 nM.

Regarding `CN(C)c1nc(CNC(=O)[C@@H]2CCN2S(=O)(=O)c2cc3cc(F)ccc3o2)cc(-c2ccc(C(F)(F)F)cc2)n1` [Example 379, (2S)-N-[[2-(dimethylamino)-6-[4-(trifluoromethyl)phenyl]-pyrimidin-4-yl]methyl]-1-(5-fluorobenzofuran-2-yl)sulfonyl-azetidine-2-carboxamide], the half-inhibitory concentration (IC50) is 19 nM.

Regarding `O=C(NCc1ccc(O)c(-c2ccc(C(F)(F)F)nn2)c1)[C@@H]1CCCN1S(=O)(=O)c1cc2ccccc2o1` [Example 380, (2S)-1-(benzofuran-2-ylsulfonyl)-N-[[4-hydroxy-3-[6-(trifluoromethyl)pyridazin-3-yl]phenyl]methyl]pyrrolidine-2-carboxamide], the IC50 came to 3.1 nM.

Turning to `C[C@H](NS(=O)(=O)c1cc2cc(F)ccc2o1)C(=O)NCc1ccc(O)c(-c2ccc(C(F)(F)F)nn2)c1` [Example 381], the concentration for half-maximal inhibition (IC50) amounted to 20 nM.

Consider `Nc1nc(CNC(=O)[C@@H]2CCCN2S(=O)(=O)c2cc3cc(F)ccc3o2)cc(-c2ccc(C(F)(F)F)cc2)n1` [Example 382, (2S)-N-[[2-amino-6-[4-(trifluoromethyl)phenyl]-pyrimidin-4-yl]methyl]-1-(5-fluorobenzofuran-2-yl)sulfonyl-pyrrolidine-2-carboxamide], for which the IC50 turned out to be 27 nM.

Regarding `O=C(NCc1ccnc(-c2ccc(C(F)(F)F)cc2O)c1)[C@@H]1CCN1S(=O)(=O)c1cc2cc(F)ccc2o1` [Example 383, (2S)-1-(5-fluorobenzofuran-2-yl)sulfonyl-N-[[2-[2-hydroxy-4-(trifluoromethyl)phenyl]-4-pyridyl]methyl]azetidine-2-carboxamide], the half-inhibitory concentration (IC50) stood at 9.7 nM.

As to `CN(C)c1nc(CNC(=O)[C@@H]2CCN2S(=O)(=O)c2cc3cc(F)ccc3o2)cc(-c2ccc(C(F)(F)F)nc2)n1` [Example 384, (2S)-N-[[2-(dimethylamino)-6-[6-(trifluoromethyl)-3-pyridyl]pyrimidin-4-yl]methyl]-1-(5-fluorobenzofuran-2-yl)sulfonyl-azetidine-2-carboxamide], the half-inhibitory concentration (IC50) turned out to be 13 nM.

For the compound `O=C(NCc1cc(-c2ccc(C(F)(F)F)cn2)ccn1)[C@@H]1CCN1S(=O)(=O)c1cc2ccccc2o1` [Example 385, (2S)-1-(benzofuran-2-ylsulfonyl)-N-[[4-[5-(trifluoromethyl)-2-pyridyl]-2-pyridyl]methyl]azetidine-2-carboxamide], the half-maximal inhibitory concentration (IC50) amounted to 13 nM.

`O=C(NCc1cc(-c2ccc(C(F)(F)F)cc2)ncn1)[C@@H]1CCN1S(=O)(=O)c1cc2ccccc2o1` [Example 386, (2S)-1-(benzofuran-2-ylsulfonyl)-N-[[6-[4-(trifluoromethyl)phenyl]-pyrimidin-4-yl]methyl]azetidine-2-carboxamide]: the IC50 was 6.6 nM.
